In ChEMBL document CHEMBL5291721, “A preclinical secondary pharmacology resource illuminates target-adverse drug reaction associations of marketed drugs” (Nat Commun, 2023):

Tests used:
[1] = molecular target: T1, Muscarinic acetylcholine receptor M1 (Homo sapiens, UniProt P11229); assay type: functional, cell-based
T1 sequence (P11229 whole entry): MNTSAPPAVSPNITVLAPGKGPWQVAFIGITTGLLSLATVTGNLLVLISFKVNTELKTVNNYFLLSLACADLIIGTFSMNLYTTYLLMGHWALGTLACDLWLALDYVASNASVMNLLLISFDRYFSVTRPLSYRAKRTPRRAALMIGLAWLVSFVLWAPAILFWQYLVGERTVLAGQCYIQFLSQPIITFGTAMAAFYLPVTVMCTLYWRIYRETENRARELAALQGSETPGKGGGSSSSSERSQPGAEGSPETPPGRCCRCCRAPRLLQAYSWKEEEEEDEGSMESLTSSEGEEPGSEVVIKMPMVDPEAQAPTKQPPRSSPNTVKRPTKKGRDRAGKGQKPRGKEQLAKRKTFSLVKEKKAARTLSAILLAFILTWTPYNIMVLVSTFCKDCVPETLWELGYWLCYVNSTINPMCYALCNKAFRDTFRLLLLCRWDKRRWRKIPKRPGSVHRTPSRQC

[2] = molecular target: T1, Muscarinic acetylcholine receptor M1; assay type: functional, cell-based; remark: listed apart in the source
D(1A) dopamine receptor = D(1A) dopamine receptor (Homo sapiens, UniProt P21728)
[3] = molecular target: Prostaglandin G/H synthase 1 (Homo sapiens, UniProt P23219); assay type: functional
[4] = molecular target: Sodium-dependent dopamine transporter (Homo sapiens, UniProt Q01959)
[5] = molecular target: Sodium-dependent serotonin transporter (Homo sapiens, UniProt P31645)
Thromboxane A2 receptor = molecular target: T2, Thromboxane A2 receptor (Homo sapiens, UniProt P21731); assay type: functional, cell-based
T2 sequence (P21731 whole entry): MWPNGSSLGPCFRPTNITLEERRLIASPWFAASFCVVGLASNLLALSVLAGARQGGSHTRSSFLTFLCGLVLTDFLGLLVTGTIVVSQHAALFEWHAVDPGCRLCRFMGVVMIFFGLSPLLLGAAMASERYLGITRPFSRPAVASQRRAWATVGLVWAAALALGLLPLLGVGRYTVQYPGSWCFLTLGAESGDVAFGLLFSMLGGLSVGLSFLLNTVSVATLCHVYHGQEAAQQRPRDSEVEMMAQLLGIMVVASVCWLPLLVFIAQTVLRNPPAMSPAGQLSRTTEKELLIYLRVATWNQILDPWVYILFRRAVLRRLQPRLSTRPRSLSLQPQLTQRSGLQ
Note: assay procedure not described here.

Chain of Sodium-dependent dopamine transporter (Q01959 whole entry): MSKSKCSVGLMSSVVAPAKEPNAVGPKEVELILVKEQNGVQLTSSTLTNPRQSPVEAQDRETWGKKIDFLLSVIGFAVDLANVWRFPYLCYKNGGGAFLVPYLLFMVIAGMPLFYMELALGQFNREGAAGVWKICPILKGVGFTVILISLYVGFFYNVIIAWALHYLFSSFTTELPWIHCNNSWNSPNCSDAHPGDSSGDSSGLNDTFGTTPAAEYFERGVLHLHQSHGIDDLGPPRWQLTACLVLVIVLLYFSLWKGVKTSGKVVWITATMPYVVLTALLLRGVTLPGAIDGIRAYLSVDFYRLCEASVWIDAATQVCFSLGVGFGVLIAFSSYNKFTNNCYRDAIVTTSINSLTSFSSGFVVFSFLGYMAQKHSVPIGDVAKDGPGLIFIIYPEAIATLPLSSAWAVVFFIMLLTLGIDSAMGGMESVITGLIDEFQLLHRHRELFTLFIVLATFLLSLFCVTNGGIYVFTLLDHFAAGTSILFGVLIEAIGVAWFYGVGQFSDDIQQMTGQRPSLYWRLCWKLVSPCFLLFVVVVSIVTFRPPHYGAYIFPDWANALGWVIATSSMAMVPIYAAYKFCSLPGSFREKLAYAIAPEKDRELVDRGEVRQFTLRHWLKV
Chain of Prostaglandin G/H synthase 1 (P23219 whole entry): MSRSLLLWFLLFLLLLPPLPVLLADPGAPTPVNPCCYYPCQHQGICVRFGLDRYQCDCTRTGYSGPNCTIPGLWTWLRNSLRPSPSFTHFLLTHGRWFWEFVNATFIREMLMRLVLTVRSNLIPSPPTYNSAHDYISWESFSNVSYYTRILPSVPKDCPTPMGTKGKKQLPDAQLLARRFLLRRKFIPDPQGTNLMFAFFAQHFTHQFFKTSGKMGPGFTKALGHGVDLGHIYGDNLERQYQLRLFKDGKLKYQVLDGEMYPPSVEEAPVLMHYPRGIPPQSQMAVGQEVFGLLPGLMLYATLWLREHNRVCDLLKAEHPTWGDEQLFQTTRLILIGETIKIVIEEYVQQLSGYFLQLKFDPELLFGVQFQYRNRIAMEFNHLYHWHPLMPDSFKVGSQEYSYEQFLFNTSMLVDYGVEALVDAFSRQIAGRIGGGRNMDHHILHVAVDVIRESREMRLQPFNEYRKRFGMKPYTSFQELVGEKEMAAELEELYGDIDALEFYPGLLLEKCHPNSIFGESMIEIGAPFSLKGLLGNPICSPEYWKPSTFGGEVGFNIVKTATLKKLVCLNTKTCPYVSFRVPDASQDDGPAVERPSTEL
Chain of Sodium-dependent serotonin transporter (P31645 whole entry): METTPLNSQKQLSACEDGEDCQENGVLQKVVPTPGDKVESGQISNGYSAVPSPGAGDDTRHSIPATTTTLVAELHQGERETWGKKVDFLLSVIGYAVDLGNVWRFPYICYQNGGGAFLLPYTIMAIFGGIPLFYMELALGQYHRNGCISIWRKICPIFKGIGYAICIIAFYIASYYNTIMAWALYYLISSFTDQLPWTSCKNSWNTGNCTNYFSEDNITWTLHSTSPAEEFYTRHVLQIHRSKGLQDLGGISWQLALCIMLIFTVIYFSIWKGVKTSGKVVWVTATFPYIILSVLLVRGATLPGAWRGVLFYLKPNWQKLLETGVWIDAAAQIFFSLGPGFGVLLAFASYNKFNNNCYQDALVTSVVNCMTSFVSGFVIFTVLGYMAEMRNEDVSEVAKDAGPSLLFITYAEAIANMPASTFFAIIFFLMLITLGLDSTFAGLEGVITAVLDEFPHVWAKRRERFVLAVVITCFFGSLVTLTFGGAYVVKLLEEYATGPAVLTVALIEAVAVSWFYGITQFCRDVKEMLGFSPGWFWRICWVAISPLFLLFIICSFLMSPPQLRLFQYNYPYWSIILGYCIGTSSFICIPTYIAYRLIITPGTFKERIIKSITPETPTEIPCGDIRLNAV
Chain of D(1A) dopamine receptor (P21728 whole entry): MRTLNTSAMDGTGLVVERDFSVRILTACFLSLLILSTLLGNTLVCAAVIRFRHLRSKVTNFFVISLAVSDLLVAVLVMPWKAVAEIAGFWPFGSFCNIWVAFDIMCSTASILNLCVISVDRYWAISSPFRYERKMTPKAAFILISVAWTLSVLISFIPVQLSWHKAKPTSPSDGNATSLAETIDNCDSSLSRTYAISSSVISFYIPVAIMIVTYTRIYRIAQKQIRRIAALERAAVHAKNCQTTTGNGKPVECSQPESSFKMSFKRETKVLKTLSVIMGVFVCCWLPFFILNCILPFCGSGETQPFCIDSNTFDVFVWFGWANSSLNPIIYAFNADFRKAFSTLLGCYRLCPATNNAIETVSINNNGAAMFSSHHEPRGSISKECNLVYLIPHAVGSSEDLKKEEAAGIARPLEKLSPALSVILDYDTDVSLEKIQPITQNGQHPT

SMILES | AC50 [1] [µM] | AC50 [2] [µM] | AC50 (D(1A) dopamine receptor) [µM] | AC50 [3] [µM] | AC50 [4] [µM] | AC50 [5] [µM] | AC50 (Thromboxane A2 receptor) [µM]
CCCCCCO[C@@H](C)c1cccc(-c2csc(NC(=O)c3cc(Cl)c(/C=C(\C)C(=O)O)c(Cl)c3)n2)c1OC [LUSUTROMBOPAG] | > 30 | 16.2 | 1.54 | 6.42 | > 10 | > 30 | > 30
C[C@]12CC[C@@H]3c4ccc(OC(=O)N(CCCl)CCCl)cc4CC[C@H]3[C@@H]1CC[C@@H]2OP(=O)(O)O [ESTRAMUSTINE PHOSPHATE] | > 30 | > 30 | 25.4 | > 30 | > 30 | > 30 | > 30
CC(C)NC[C@H](O)COc1ccc(O)cc1 [PRENALTEROL] | > 30 | > 30 | > 30 | 5.86 | > 30 | > 30 | > 30
C=CCOc1ccc(CC(=O)O)cc1Cl [ALCLOFENAC] | > 30 | > 30 | > 30 | > 3 | > 30 | > 30 | > 30
N#Cc1ccnc(N2C(=O)CC[C@H]2C(=O)N(c2cncc(F)c2)[C@H](C(=O)NC2CC(F)(F)C2)c2ccccc2Cl)c1 [IVOSIDENIB] | > 30 | > 30 | > 30 | > 30 | > 30 | > 30 | > 30
OC[C@H]1NC[C@H](O)[C@@H](O)[C@H]1O | > 30 | > 30 | > 30 | > 30 | > 30 | > 30 | > 30
C[C@@H](CN1CC(=O)NC(=O)C1)N1CC(=O)NC(=O)C1 [DEXRAZOXANE] | > 30 | > 30 | > 30 | 5.98 | > 30 | > 30 | > 30
COc1cccc2c1C(=O)c1c(O)c3c(c(O)c1C2=O)C[C@@](O)(C(=O)CO)C[C@@H]3O[C@H]1C[C@H](N)[C@H](O[C@@H]2CCCCO2)[C@H](C)O1 [PIRARUBICIN] | > 1 | > 10 | > 30 | 1.57 | > 30 | > 30 | > 1
CN1CCN(C(c2ccccc2)c2ccc(Cl)cc2)CC1 (stereo not given) [CHLORCYCLIZINE] | > 30 | 0.691 | 6.89 | > 30 | 0.225 | 15.4 | 11.3
O=C(O)[C@H](O)[C@@H](O)[C@H](O)[C@H](O)CO [GLUCONIC ACID] | > 30 | > 30 | > 30 | > 30 | > 30 | > 30 | > 30
CO[C@@]1(NC(=O)C(C(=O)O)c2ccc(O)cc2)C(=O)N2C(C(=O)O)=C(CSc3nnnn3C)CO[C@@H]21 (stereo not given in full) [MOXALACTAM] | > 30 | > 30 | > 30 | > 30 | > 30 | > 30 | > 30
CC(C)(Oc1ccc(Cl)cc1)C(=O)NC(=O)NCN1CCOCC1 [PLAFIBRIDE] | > 30 | > 30 | > 30 | > 30 | > 30 | > 30 | > 30
CCCCCCCC/C=C\CCCCCCCC(=O)O [OLEIC ACID] | > 30 | 13.2 | > 30 | 3.54 | > 30 | > 30 | > 30
N=C(N)NCC1COc2ccccc2O1 (stereo not given) [GUANOXAN] | > 30 | > 30 | 23.4 | > 30 | > 30 | > 30 | > 30
CC1=C(C/C=C(\C)CCC[C@H](C)CCC[C@H](C)CCCC(C)C)C(=O)c2ccccc2C1=O [PHYTONADIONE] | > 30 | > 30 | > 30 | 13.4 | > 30 | > 30 | > 30
